From patent US8278455B2, “5- or 6-substituted benzimidazole derivatives as inhibitors of respiratory syncytial virus replication” (Janssen Pharmaceutica N.V., priority 2003, dated 2012) come the findings set out here.

Each structure is given as a SMILES string.

One data set deals with Respiratory Syncytial Virus. Kind of data set: In vitro screening for activity against Respiratory Syncytial Virus (MTT tetrazolium colorimetric assay, HeLa cells). The class given is cell-based. To be noted: human respiratory syncytial virus, 168 h; protection against RSV cytopathology in HeLa cells, 7 days after infection; pEC50 = −log of EC50 in molar units. The procedure, abridged: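 HeLa cells (4×10^5 cells/ml) added 2 h after ~100 TCID50 RSV to wells holding five-fold compound dilutions, in Eagle's medium with 5% FCS and 20 mM Hepes; mock-infected rows gave cytotoxicity. After 7 days at 37 °C, MTT read at 540 minus 690 nm; EC50/CC50 from dose-response, reported as pEC50 categories.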
As for `Cc1cccc(SCc2ccc3nc(NC4CCN(C)CC4)n(Cc4nc(C)ccc4O)c3c2)c1` [Compound 93, 6-methyl-2-[2-(1-methyl-piperidin-4-ylamino)-6-m-tolylsulfanylmethyl-benzoimidazol-1-ylmethyl]-pyridin-3-ol], the concentration giving a half-maximal response (EC50) was 251 nM. In turn, `Cc1ccc(O)c(Cn2c(NC3CCN(C)CC3)nc3ccccc32)n1` [Compound 101] gave an EC50 of 398 nM. The compound `Cc1ccc(O)c(Cn2c(NC3CCN(C)CC3)nc3ccc(CNc4cc(Cl)cc(Cl)c4)cc32)n1` [Compound 2, 2-[6-[(3,5-dichloro-phenylamino)-methyl]-2-(1-methyl-piperidin-4-ylamino)-benzoimidazol-1-ylmethyl]-6-methyl-pyridin-3-ol] gave a concentration for a half-maximal effect (EC50) of 2 nM. `Cc1cccc(C(=O)Nc2ccc3c(c2)nc(NC2CCN(C)CC2)n3Cc2nc(C)ccc2O)c1` [Compound 78, N-[1-(3-hydroxy-6-methyl-pyridin-2-ylmethyl)-2-(1-methyl-piperidin-4-ylamino)-1H-benzoimidazol-5-yl]-3-methyl-benzamide] gave an EC50 of 126 nM.

The same data set, now with this note: protection against RSV cytopathology in HeLa cells, 7 days after infection; pEC50 = −log of EC50 in molar units.
In turn, `Cc1ccc(O)c(Cn2c(NC3CCN(CCC(N)=O)CC3)nc3cc(CCc4ccccc4)ccc32)n1` [Compound 170] had an Activity of 5.7. In turn, `CC(=O)Nc1ccc(NCc2ccc3nc(NC4CCN(C)CC4)n(Cc4nc(C)ccc4O)c3c2)cc1` [Compound 53] gave an Activity of 7.4.

`Cc1ccc(O)c(Cn2c(NC3CCN(C)CC3)nc3ccc(CNc4ccc(Br)c(C)c4)cc32)n1` [Compound 68] registered an Activity of 7.2. Compound `CCc1cc(Br)ccc1NCc1ccc2nc(NC3CCN(C)CC3)n(Cc3nc(C)ccc3O)c2c1` [Compound 74] yielded an Activity of 7.1. Still for that read-out and setting: with `Cc1cc(C)cc(NCc2ccc3c(c2)nc(NCCc2ccccc2)n3Cc2nc(C)ccc2O)c1` [Compound 186] the figure was <4; with `Cc1ccc(O)c(Cn2c(NCCCN3CCN(C)CC3)nc3cc(CO)ccc32)n1` [Compound 183], 5; with `Cc1cc(C)cc(N(CCO)Cc2ccc3nc(NC4CCN(C)CC4)n(Cc4nc(C)ccc4O)c3c2)c1` [Compound 1], 9.4. As to `Cc1ccc(O)c(Cn2c(NC3CCN(C)CC3)nc3cc(CO)ccc32)n1` [Compound 122], the Activity is <4. `Cc1ccc(O)c(Cn2c(NC3CCN(C)CC3)nc3ccc(CNc4ccccc4C(C)C)cc32)n1` [Compound 21] displayed an Activity of 7.9. The compound `Cc1ccc(O)c(Cn2c(NC3CCN(C)CC3)nc3cc(/C=C/c4ccccc4)ccc32)n1` [Compound 100] yielded an Activity of 6.4.

The compound `Cc1ccc(O)c(Cn2c(NC3CCN(C)CC3)nc3ccc(CNc4ccc(Br)c(F)c4)cc32)n1` [Compound 69] registered an Activity of 7.2. Compound `CCOC(=O)c1ccc(NCc2ccc3nc(NC4CCN(C)CC4)n(Cc4nc(C)ccc4O)c3c2)c(O)c1` [Compound 24] came in with an Activity of 7.9. As to `Cc1cc(C)cc(N(CCN(C)C)Cc2ccc3nc(NC4CCN(C)CC4)n(Cc4nc(C)ccc4O)c3c2)c1` [Compound 5], the Activity is recorded as 8.5. On the same count and under the same terms, with `Cc1ccc(O)c(Cn2c(NC3CCN(C)CC3)nc3ccc(CNc4ccc(F)cc4)cc32)n1` [Compound 26] the figure was 7.9; with `Cc1ccc(O)c(Cn2c(NCCCN3CCCCC3)nc3ccc(CO)cc32)n1` [Compound 177], 7.1; with `Cc1ccc(O)c(Cn2c(NC3CCN(C)CC3)nc3ccc(/C=C/c4ccccc4)cc32)n1` [Compound 99], 6.4. The compound `Cc1ccc(O)c(Cn2c(NC3CCN(C)CC3)nc3ccc(CNc4ccc(Br)cc4F)cc32)n1` [Compound 48] yielded an Activity of 7.5. Turning to `CCN(Cc1ccc2nc(NC3CCN(C)CC3)n(Cc3nc(C)ccc3O)c2c1)c1ccccc1` [Compound 62], the Activity is recorded as 7.3. In the case of `Cc1ccc(O)c(Cn2c(NC3CCN(C)CC3)nc3ccc(CNCCc4ccccc4)cc32)n1` [Compound 110], the Activity worked out at 5.8. For `CCc1cc(C#N)ccc1NCc1ccc2nc(NC3CCN(C)CC3)n(Cc3nc(C)ccc3O)c2c1` [Compound 43], the Activity is 7.6. Still for that read-out and setting: with `Cc1cc(C)cc(NCc2cc(C)c3nc(NC4CCN(CCO)CC4)n(Cc4nc(C)ccc4O)c3c2)c1` [Compound 172] the figure was 8.5; with `COc1ccc(CCNc2nc3cc(CNc4cc(C)cc(C)c4)ccc3n2Cc2nc(C)ccc2O)cc1` [Compound 191], <4; with `Cc1ccc(O)c(Cn2c(NC3CCN(C)CC3)nc3ccc(CNc4ccccc4C(N)=O)cc32)n1` [Compound 14], 8.1. As to `Cc1cc(C)cc(NCc2ccc3nc(NC4CCN(CCO)CC4)n(Cc4nc(C)ccc4O)c3c2)c1` [Compound 149], the Activity was 8.8. `Cc1ccc(O)c(Cn2c(NC3CCN(C)CC3)nc3ccc(CNc4cccc(Oc5ccccc5)c4)cc32)n1` [Compound 66] came in with an Activity of 7.2. Same read-out and setting: with `Cc1ccc(O)c(Cn2c(NC3CCN(C)CC3)nc3ccc(C(=O)Nc4ccccc4)cc32)n1` [Compound 112] the figure was 5.5; with `COCCN(CCOC)Cc1ccc2nc(NC3CCN(C)CC3)n(Cc3nc(C)ccc3O)c2c1` [Compound 102], 6.4. The compound `Cc1cccc(/C=C/c2ccc3c(c2)nc(NC2CCN(C)CC2)n3Cc2nc(C)ccc2O)c1` [Compound 104] gave an Activity of 6.2. Same read-out and setting: with `Cc1ccc(NCc2ccc3nc(NC4CCN(C)CC4)n(Cc4nc(C)ccc4O)c3c2)c(Cl)c1` [Compound 73] the figure was 7.1. As to `Cc1ccc(O)c(Cn2c(NC3CCN(CCO)CC3)nc3ccc(C=Cc4ccccc4)cc32)n1` [Compound 169], the Activity is given as 6.6. Take `Cc1cc(C)cc(NCc2ccc3c(c2)nc(NCC(O)CO)n3Cc2nc(C)ccc2O)c1` (stereo not drawn) [Compound 180]: the Activity came to 5.6.

Consider `Cc1ccc(O)c(Cn2c(NC3CCN(C)CC3)nc3ccc(CNc4c(C)cccc4C(C)C)cc32)n1` [Compound 82], for which the Activity is reported as 6.9.

As for `Cc1ccc(O)c(Cn2c(NC3CCN(C)CC3)nc3cc(CNc4ccccc4)ccc32)n1` [Compound 131], the Activity is given as <4. As for `Cc1ccc(O)c(Cn2c(NC3CCN(Cc4ccccc4)CC3)nc3ccc(CNc4cc(Cl)cc(Cl)c4)cc32)n1` [Compound 165], the Activity is recorded as 7.1. The same measure, in the same setting: with `Cc1ccc(O)c(Cn2c(NC3CCN(C)CC3)nc3ccc(CNc4ccc(C(F)(F)F)cc4)cc32)n1` [Compound 71] the figure was 7.2; with `COc1cc(NCc2ccc3nc(NC4CCN(C)CC4)n(Cc4nc(C)ccc4O)c3c2)cc(OC)c1` [Compound 36], 7.7. Take `Cc1ccc(O)c(Cn2c(NC3CCN(C)CC3)nc3ccc(CNc4ccc5c(c4)CCC5)cc32)n1` [Compound 45]: the Activity worked out at 7.5. The compound `Cc1ccc(O)c(Cn2c(NCCCN3CCN(C)CC3)nc3ccc(CO)cc32)n1` [Compound 178] showed an Activity of 6.5.

As for `Cc1ccc(O)c(Cn2c(NC3CCN(C)CC3)nc3ccc(CNc4ccc(F)c(F)c4)cc32)n1` [Compound 50], the Activity was 7.4. `CCc1cccc(NCc2ccc3nc(NC4CCN(C)CC4)n(Cc4nc(C)ccc4O)c3c2)c1` [Compound 15] came in with an Activity of 8.

Turning to `Cc1ccc(O)c(Cn2c(NC3CCN(C)CC3)nc3cc(/C=C/c4ccc(Cl)cc4)ccc32)n1` [Compound 127], the Activity is reported as <4. On to `Cc1ccc(O)c(Cn2c(NC3CCN(C)CC3)nc3cc(C(=O)NCCc4ccccc4)ccc32)n1` [Compound 120], for which the Activity was 4.6. `Cc1ccc(O)c(Cn2c(NC3CCN(C)CC3)nc3ccc(CNc4ccc5c(c4)OCCO5)cc32)n1` [Compound 32]: the Activity is 7.8. For `Cc1ccc(O)c(Cn2c(NC3CCN(C)CC3)nc3ccc(CNc4c(F)cccc4F)cc32)n1` [Compound 46], the Activity is recorded as 7.5. For the compound `Cc1ccc(O)c(Cn2c(NC3CCN(C)CC3)nc3ccc(CNc4cccc(C)c4C)cc32)n1` [Compound 20], the Activity is 7.9.

`Cc1ccc(O)c(Cn2c(NC3CCN(C)CC3)nc3ccc(CN(C)c4ccccc4)cc32)n1` [Compound 51] came in with an Activity of 7.4. With `Cc1ccc(O)c(Cn2c(NC3CCN(C)CC3)nc3ccc(CNc4ccc(Br)c5ccccc45)cc32)n1` [Compound 94], the Activity turned out to be 6.6. The compound `Cc1ccc(O)c(Cn2c(NC3CCN(CCO)CC3)nc3cc(CCc4ccccc4)ccc32)n1` [Compound 168] came in with an Activity of 6.6. Regarding `Cc1cc(C)cc(NCc2ccc3c(c2)nc(NCCCN2CCN(C)CC2)n3Cc2nc(C)ccc2O)c1` [Compound 179], the Activity is recorded as 6.2. `CCc1cccc(CC)c1NCc1ccc2nc(NC3CCN(C)CC3)n(Cc3nc(C)ccc3O)c2c1` [Compound 52] registered an Activity of 7.4.

`Cc1ccc(O)c(Cn2c(NC3CCN(C)CC3)nc3ccc(CCc4ccccc4)cc32)n1` [Compound 29] registered an Activity of 7.8. On to `Cc1ccc(O)c(Cn2c(NC3CCN(C)CC3)nc3ccc(CO)cc32)n1` [Compound 92], for which the Activity is listed as 6.6.

Tested on in another data set: not given
Assay: not given
Details: not given
`Cc1cccc(SCc2ccc3nc(NC4CCN(C)CC4)n(Cc4nc(C)ccc4O)c3c2)c1` [Compound 93, 6-methyl-2-[2-(1-methyl-piperidin-4-ylamino)-6-m-tolylsulfanylmethyl-benzoimidazol-1-ylmethyl]-pyridin-3-ol]: the melting point is 202 °C.

Turning to `Cc1ccc(O)c(Cn2c(NC3CCN(C)CC3)nc3ccccc32)n1` [Compound 101], the melting point was > 260 °C. The same measure, in the same setting: with `Cc1cccc(C(N)c2ccc3nc(NC4CCN(CCO)CC4)n(Cc4nc(C)ccc4O)c3c2)c1` (stereo not drawn) [Compound 148, 2-[2-[1-(2-hydroxy-ethyl)-piperidin-4-ylamino]-6-(m-tolyl-amino-methyl)-benzoimidazol-1-ylmethyl]-6-methyl-pyridin-3-ol] the figure was 137 °C; with `Cc1ccc(O)c(Cn2c(NC3CCN(CCN)CC3)nc3ccc(C=Cc4ccccc4)cc32)n1.Cl` (hydrate or solvate) [Compound 146, 2-{2-[1-(2-Amino-ethyl)-piperidin-4-ylamino]-6-styryl-benzoimidazol-1-ylmethyl}-6-methyl-pyridin-3-ol hydrochloride salt], > 260 °C.

A word on the EC50: it is the concentration that produces a half-maximal response. Lower therefore signals higher potency in that assay. For orientation: melting point means the temperature of the solid-liquid transition.
